Measured values reported in paper PMC10508484, “Development and application of a PBPK modeling strategy to support antimalarial drug development” (CPT: Pharmacometrics & Systems Pharmacology, 2023).
Where two headings read alike, the source gives them in different places. Values belong to the molecule of their own block, whether it stands above or below them.

How the values were obtained:
[1] = ref Charman et al., 2020 1; cited from earlier work
[2] = In vitro flags for victim and perpetrator properties conferring DDI liability; assay type: in vitro ADME, human; settings: in vitro flag, mainly based on in vitro determinations
[3] = measured (0.4 mg/mL protein where stated); ref Charman et al., 2020 1; cited from earlier work
[4] = cited from earlier work; for Cmax Obs: ref Gustafsson et al., 1983 16
[5] = In vivo clearance (CL IV, CL PO, CL renal, fe); settings: chloroquine model
CYP2C8 = target: T1, CYP2C8 (Homo sapiens, UniProt P10632); assay: Metabolism by CYP2C8 (CLint, fm); settings: for fmCYP2C8: fraction metabolised used in the PBPK model
T1 sequence (P10632 1-490): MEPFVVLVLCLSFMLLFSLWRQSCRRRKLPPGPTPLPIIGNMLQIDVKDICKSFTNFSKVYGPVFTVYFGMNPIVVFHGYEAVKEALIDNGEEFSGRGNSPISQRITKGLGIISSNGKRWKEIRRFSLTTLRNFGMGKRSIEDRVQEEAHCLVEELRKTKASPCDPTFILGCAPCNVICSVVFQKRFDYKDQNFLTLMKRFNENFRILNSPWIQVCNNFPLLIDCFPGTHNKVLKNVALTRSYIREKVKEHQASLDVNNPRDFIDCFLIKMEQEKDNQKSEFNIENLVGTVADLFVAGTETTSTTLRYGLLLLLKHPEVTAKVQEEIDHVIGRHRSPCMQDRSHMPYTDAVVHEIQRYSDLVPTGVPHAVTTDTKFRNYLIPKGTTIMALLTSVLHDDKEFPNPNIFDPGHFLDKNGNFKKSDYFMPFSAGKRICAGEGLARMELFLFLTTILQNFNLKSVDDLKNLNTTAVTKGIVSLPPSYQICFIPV
Source text: (§1) In nearly all cases the fraction of systemic elimination metabolised by a given enzyme (fm) determined in vitro was unavailable in the literature.

[6] = cited from earlier work
[7] = PBPK input; ref atovaquone oral bioavailability Lavelle et al., 1994 17; chloroquine Walker et al., 1987 29; doxycycline Fabre et al., 1966 45, Saivin et al., 1988 46; proguanil Ke et al., 2014 64; pyronaridine mass balance study Morris et al., 2015 72; cited from earlier work
[8] = Fraction unbound in human liver microsomes (fumic); settings: extrapolated from value measured at 0.4 mg/mL to 0.1 mg/mL, method of Austin et al., 2002
Caco-2 cells = settings: cited from earlier work
[9] = ref amodiaquine, DEAQ Hietala, 2009 2; atovaquone Nixon et al., 2013 13; DHA Batty et al., 2004 41; mefloquine, tafenoquine (also AGP) Zsila et al., 2008 54; cited from earlier work
UGT1A9 = assay: Metabolism by UGT1A9; assay type: in vitro ADME, human; settings: equal contribution assumed
Source text: as §1

UGT2B7 = assay: Metabolism by UGT2B7; assay type: in vitro ADME, human; settings: equal contribution assumed
Source text: as §1

[10] = PBPK absorption inputs (fa, ka, tlag, Qgut, Fg); set-up: species or system human; settings: Relative fa (in vivo fasted AUC / fed AUC; Reuter et al., 2015 for DHA, Crevoisier et al., 1997 for mefloquine)
Source text: Initial models were built based on available physicochemical and in vitro data to give a ‘bottom-up’ prediction. Areas of uncertainty were highlighted, and the potential impact of uncertainty associated with such parameters was investigated using sensitivity analysis. Available clinical PK data were then used to evaluate and, if required, refine the initial ‘bottom-up’ model. Care was taken to split data into training and test sets wherever possible. The model verification strategy differed across compounds based on availability of different types of clinical data. […] Clinical studies used for drug model development and verification are reported in Table S2 (PK) and Table S3 (DDIs).

CYP1A2 [11] = settings: read-out: CYP1A2 Ki; ref Charman et al., 2020 1; cited from earlier work
[12] = PBPK input; ref Charman et al., 2020 1; cited from earlier work
CYP2B6 = assay: Metabolism by CYP2B6 (CLint, Vmax, Km, fm); assay type: in vitro ADME, human
Source text: as §1

in vitro = settings: human, plasma
[13] = Blood to plasma ratio (B:P); settings: PBPK input; unpublished (in-house) data
CYP2D6 [14] = target: T2, CYP2D6 (Homo sapiens, UniProt P10635); assay: Metabolism by CYP2D6 (CLint, fm)
Source text: as §1

CYP3A4 = CYP3A4 (Homo sapiens, UniProt P08684)
Source text: as §1

CYP1A2 [15] = assay: Metabolism by CYP1A2 (CLint, fm); assay type: in vitro ADME, human
Source text: as §1

CYP2D6 [16] = target: T2, CYP2D6; assay: CYP2D6 inhibition
[17] = PBPK input, ref amodiaquine, DEAQ Winstanley et al., 1987 9, atovaquone Rolan et al., 1997 14, azithromycin Lalak et al., 1993 23, carboxyprimaquine Mihaly et al., 1985 26, chloroquine Walker et al., 1987 29, DHA EMA Website, 44, doxycycline Raghuram et al., 1982 48, Nguyen et al., 1989 49, mefloquine Schwartz et al., 1982 57, primaquine White, 1985 62, proguanil Jeppesen et al., 1997 34, pyrimeth
[18] = clinically observed oral (in vivo) clearance, pyronaridine: blood, ref amodiaquine Winstanley et al., 1987 9, DEAQ Akande et al., 2015 8, Scarsi et al., 2014 35, Tarning et al., 2012 36, Orrell et al., 2008 37, DHA Na-Bangchang et al., 2004 42, lumefantrine Lefevre et al., 2002 52, Hoglund et al., 2015 53, mefloquine Charles et al., 2007 56, proguanil Jeppesen et al., 1997 34, pyronaridine Jittama
[19] = retrograde calculations from CL PO, blood
[20] = fraction metabolised used in the PBPK model

T2 sequence (P10635 whole entry): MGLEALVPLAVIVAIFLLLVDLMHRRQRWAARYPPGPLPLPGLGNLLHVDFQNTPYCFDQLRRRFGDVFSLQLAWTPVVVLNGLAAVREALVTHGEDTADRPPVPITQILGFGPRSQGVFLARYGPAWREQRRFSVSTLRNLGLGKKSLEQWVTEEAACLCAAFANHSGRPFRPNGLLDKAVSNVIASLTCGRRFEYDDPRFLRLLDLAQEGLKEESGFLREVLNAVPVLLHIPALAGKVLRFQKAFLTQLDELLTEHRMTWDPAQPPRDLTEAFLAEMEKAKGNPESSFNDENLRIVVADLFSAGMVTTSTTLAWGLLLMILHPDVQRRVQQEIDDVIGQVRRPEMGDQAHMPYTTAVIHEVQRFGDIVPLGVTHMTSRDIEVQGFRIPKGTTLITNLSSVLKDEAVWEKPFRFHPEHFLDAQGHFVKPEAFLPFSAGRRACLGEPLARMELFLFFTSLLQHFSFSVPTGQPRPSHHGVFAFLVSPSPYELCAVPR
CYP3A4, sequence (P08684 whole entry): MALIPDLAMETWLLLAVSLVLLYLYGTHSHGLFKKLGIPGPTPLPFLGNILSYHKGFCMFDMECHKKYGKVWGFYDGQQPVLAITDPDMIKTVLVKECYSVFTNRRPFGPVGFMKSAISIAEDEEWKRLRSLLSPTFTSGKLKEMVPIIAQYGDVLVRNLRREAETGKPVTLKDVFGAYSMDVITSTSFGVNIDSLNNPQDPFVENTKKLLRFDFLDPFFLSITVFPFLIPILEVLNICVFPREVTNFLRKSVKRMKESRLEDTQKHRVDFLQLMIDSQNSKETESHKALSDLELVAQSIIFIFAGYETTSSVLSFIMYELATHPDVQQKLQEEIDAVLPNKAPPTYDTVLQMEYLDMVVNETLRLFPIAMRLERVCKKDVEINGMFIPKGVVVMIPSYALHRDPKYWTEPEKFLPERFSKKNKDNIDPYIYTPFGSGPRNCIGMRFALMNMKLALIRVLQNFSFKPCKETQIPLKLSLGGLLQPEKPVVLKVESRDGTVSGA

Risk as a perpetrator [2]: CYP2D6 inhibitor
renal clearance share of elimination [5]: 57%
fmCYP2C8 (CYP2C8): 11%
CLint CYP2C8 (CYP2C8; human): 0.27 µL/min/pmol
SMILES: CCN(CC)CCCC(C)Nc1ccnc2cc(Cl)ccc12 (stereo not drawn) [Chloroquine, chloroquine]
B:P [1]: 3.5
Risk as a victim [2]: Substrate of CYP2C8 and CYP3A4; renally cleared
fumic [3]: 0.5
Cmax Obs ([4]; 300 mg infusion (over 23.5 mins) SD): 837 ng/mL
Cmax Obs ([4]; 300 mg soln. SD): 73.0 ng/mL
Cmax Obs ([4]; 300 mg tablet SD): 76.0 ng/mL
CL renal [6, 17]: 24.78 L/h
CL IV ([6]; clinically observed, ref atovaquone Lavelle et al., 1994 17, chloroquine Walker et al., 1987 29, Gustafsson et al., 1983 30, doxycycline Raghuram et al., 1982 48, Nguyen et al., 1989 49, primaquine Mihaly et al., 1985 26, quinine White et al., 1983 77, Paintaud et al., 1993 78): 39.84 L/h
fa [7]: 1

fumic [8]: 0.964
fmUGT1A9 (UGT1A9): 50%
Risk as a perpetrator [2]: CYP1A2 inhibitor
Risk as a victim [2]: Substrate of UGT1A9 and UGT2B7
fmUGT2B7 (UGT2B7): 50%
fa ([10]; listed as DHA (administered as DHA)): 0.71
fa ([10]; listed as DHA (administered as artesunate)): 1
SMILES: C[C@H]1[C@@H](O)O[C@@H]2O[C@@]3(C)CC[C@H]4[C@H](C)CC[C@@H]1[C@@]24OO3 [DHA, dihydroartemisinin]
Caco-2 (Papp A-B) (Caco-2 cells; calibrated against propranolol, plasma as medium for atovaquone and piperaquine, ref Charman et al., 2020 1): 49 10-6 cm/s
Main binding protein [9]: AGP
AUC Obs ([4]; 4 mg/kg SD, 0-inf, ref Na-Bangchang et al., 2004 20): 907 ng·h/mL
AUC Obs ([4]; 120 mg SD, 0-inf, ref Chinh et al., 2009 23): 370 ng·h/mL
AUC Obs ([4]; 180 mg SD (artesunate), 0-inf, ref Jittamala et al., 2015 15): 1400 ng·h/mL
AUC Obs ([4]; 240 mg SD, 0-inf, ref Le et al., 1999 22): 1980 ng·h/mL
AUC Obs ([4]; 300 mg SD, 0-inf, ref Na-Bangchang et al., 1997 21): 2018 ng·h/mL
Ki (CYP1A2 [11]): 4380 nM
Log P [12]: 2.3
CL PO [6, 18]: 273.2 L/h

SMILES: COc1ccc2nc3cc(Cl)ccc3c(Nc3cc(CN4CCCC4)c(O)c(CN4CCCC4)c3)c2n1 [Pyronaridine, pyronaridine]
Risk as a perpetrator [2]: CYP2D6 and P‐gp inhibitor
Risk as a victim [2]: Substrate of CYP1A2, CYP2B6, CYP2C8, CYP2D6 and CYP3A4
fmCYP2B6 (CYP2B6; fraction metabolised used in the PBPK model (artemether: without induction)): 7.7%
CLint CYP2B6 (CYP2B6; [19]): 0.47 µL/min/pmol
fraction unbound (in vitro): 0.058
B:P [13]: 1.5
fmCYP2D6 (CYP2D6 [14]; [20]): 20.6%
CLint CYP2D6 (CYP2D6 [14]; retrograde calculations): 1.33 µL/min/pmol
fmCYP3A4 (CYP3A4): 61.1%
CLint CYP3A4 (CYP3A4; microsomes): 0.42 µL/min/pmol
fmCYP1A2 (CYP1A2 [15]; [20]): 4.7%
CLint CYP1A2 (CYP1A2 [15]; [19]): 0.09 µL/min/pmol
CLint CYP2C8 (CYP2C8; derived from in vivo clearance by retrograde calculations): 0.19 µL/min/pmol
fmCYP2C8 (CYP2C8): 4.8%
CL renal [6, 17]: 0.16 L/h
CL PO [6, 18]: 22.1 L/h
fe (fraction excreted unchanged in urine) ([6]; ref atovaquone Rolan et al., 1997 14, mefloquine Schwartz et al., 1982 57, primaquine White, 1985 62, proguanil (extensive metabolisers) Jeppesen et al., 1997 34, pyronaridine Wattanavijitkul, 2010 74, sulfadoxine assumed with Edstein, 1987 83): 1%
fa [7]: 0.74

SMILES: CCN(CC)Cc1cc(Nc2ccnc3cc(Cl)ccc23)ccc1O [Amodiaquine, amodiaquine]
Caco-2 (Papp A-B) (Caco-2 cells; Caco-2): 9.8 10-6 cm/s
Risk as a victim [2]: Substrate of CYP2C8
Ki (CYP2D6 [16]): 450 nM
AUC Obs ([4]; in vivo, 540 mg): 331 ng·h/mL
CL PO ([6]; in vivo, po): 2500 L/h
CL renal ([6]; in vivo): 3.5 L/h
